In ChEMBL document CHEMBL4811227, “Biosynthesis of Nonimmunosuppressive ProlylFK506 Analogues with Neurite Outgrowth and Synaptogenic Activity” (J Nat Prod, 2021):
Activity calls are given as the source filed them. The rule behind the calls is not given here.

Columns and labels:
[1] = tested on: CD4+ve Th; test: Immunosuppressive activity in C57BL/6J mouse CD4+ve T cells assessed as inhibition of CD3/CD28-stimulated CD4+ve T cell proliferation by measuring fold reduction incubated for 72 hrs by CellTrace-violet staining based flow cytometry analysis relative to FK506; type: functional
[2] = tested on: Primary hippocampal neuron; test: Neurotrophic activity in ICR mouse primary hippocampal neuron assessed as induction of neurite outgrowth at 1 ng/ml measured after 48 hrs by photographic imaging analysis; type: functional, tissue-based
[3] = Neurotrophic activity in ICR mouse primary hippocampal neuron assessed as increase in relative spontaneous excitatory postsynaptic current frequency at -70 mV holding potential at 1 ng/ml incubated for 10 to 14 days in presence of bicuculline methiodide; type: functional; conditions: time 10-14 day
[4] = tested on: CD4+ve Th; test: Immunosuppressive activity in C57BL/6J mouse CD4+ve T cells assessed as inhibition of CD3/CD28-stimulated CD4+ve T cell proliferation incubated for 72 hrs by CellTrace-violet staining based flow cytometry analysis; type: functional

Row | SMILES | fold change (FC) [1] | Activity [2] | Activity [3] | IC50 [4]
1 | CCC[C@@H]1/C=C(\C)C[C@H](C)C[C@H](OC)[C@H]2O[C@@](O)(CC(=O)N3CCC[C@H]3C(=O)O[C@H](/C(C)=C/[C@@H]3CC[C@@H](O)[C@H](O)C3)[C@H](C)[C@@H](O)CC1=O)[C@H](C)C[C@@H]2OC | 220000 | Active | 2.63 | 7.27 µM
2 | CCC[C@@H]1/C=C(\C)C[C@H](C)C[C@H](OC)[C@H]2O[C@@](O)(C(=O)C(=O)N3CCC[C@H]3C(=O)O[C@H](/C(C)=C/[C@@H]3CC[C@@H](O)[C@H](OC)C3)[C@H](C)[C@@H](O)CC1=O)[C@H](C)C[C@@H]2OC | 120000 | Active | 3.29 | 3.97 µM
3 | C=CC[C@@H]1/C=C(\C)C[C@H](C)C[C@H](OC)[C@H]2O[C@@](O)(C(=O)C(=O)N3CCCC[C@H]3C(=O)O[C@H](/C(C)=C/[C@@H]3CC[C@@H](O)[C@H](OC)C3)[C@H](C)[C@@H](O)CC1=O)[C@H](C)C[C@@H]2OC [TACROLIMUS ANHYDROUS] |  |  | 2.61 | 3.4e-05 µM
